Assay results published in the NIST ThermoML archive (doi:10.1016/j.jct.2009.12.001).

Assay: osmotic coefficient (dimensionless); mn = molality of the nth substance listed, in mol/kg
Conditions: 323.15 K, Liquid, Vapor Pressure Osmometer

CCOS(=O)(=O)[O-].CC[n+]1ccccc1 [1-ethylpyridinium ethyl sulfate] + CCCCO
Conditions	osmotic coefficient
m1 = 0.0564	0.758
m1 = 0.0836	0.694
m1 = 0.1146	0.652
m1 = 0.2084	0.578
m1 = 0.2995	0.536
m1 = 0.3996	0.508
m1 = 0.5015	0.495
m1 = 0.7046	0.467
m1 = 0.9934	0.44
m1 = 1.289	0.429
m1 = 1.688	0.418
m1 = 2.094	0.402
m1 = 2.493	0.388
m1 = 2.886	0.38
m1 = 3.301	0.374

CCOS(=O)(=O)[O-].CC[n+]1ccccc1 [1-ethylpyridinium ethyl sulfate] + CCC(C)O
Conditions	osmotic coefficient
m1 = 0.0597	0.82
m1 = 0.0791	0.784
m1 = 0.1061	0.759
m1 = 0.1993	0.665
m1 = 0.313	0.575
m1 = 0.4056	0.515
m1 = 0.5166	0.482
m1 = 0.7016	0.452
m1 = 1.006	0.429
m1 = 1.291	0.421
m1 = 1.73	0.406
m1 = 2.104	0.392
m1 = 2.512	0.383
m1 = 2.915	0.378
m1 = 3.294	0.374

CCOS(=O)(=O)[O-].CC[n+]1ccccc1 [1-ethylpyridinium ethyl sulfate] + CCCCCO
Conditions	osmotic coefficient
m1 = 0.0539	0.761
m1 = 0.0802	0.679
m1 = 0.1082	0.605
m1 = 0.2024	0.521
m1 = 0.3151	0.465
m1 = 0.4053	0.435
m1 = 0.511	0.416
m1 = 0.7996	0.376
m1 = 1.105	0.359
m1 = 1.414	0.355
m1 = 1.719	0.347
m1 = 2.23	0.335
m1 = 2.724	0.332
m1 = 3.206	0.33

CCOS(=O)(=O)[O-].CC[n+]1ccccc1 [1-ethylpyridinium ethyl sulfate] + CCCO
Conditions	osmotic coefficient
m1 = 0.0584	0.853
m1 = 0.073	0.824
m1 = 0.1074	0.768
m1 = 0.2108	0.684
m1 = 0.3057	0.635
m1 = 0.4128	0.603
m1 = 0.5105	0.586
m1 = 0.7918	0.561
m1 = 1.108	0.547
m1 = 1.347	0.54
m1 = 1.697	0.528
m1 = 2.217	0.505
m1 = 2.727	0.487
m1 = 3.22	0.474

CCOS(=O)(=O)[O-].CC[n+]1ccccc1 [1-ethylpyridinium ethyl sulfate] + CC(C)O
Conditions	osmotic coefficient
m1 = 0.0578	0.948
m1 = 0.1042	0.871
m1 = 0.2018	0.772
m1 = 0.3112	0.695
m1 = 0.3991	0.664
m1 = 0.5034	0.607
m1 = 0.6891	0.564
m1 = 0.9837	0.533
m1 = 1.287	0.506
m1 = 1.684	0.49
m1 = 2.075	0.47
m1 = 2.514	0.449
m1 = 2.915	0.432
m1 = 3.338	0.417
